# In publication doi:10.1101/2021.11.16.468530v1 (biorxiv, 2021):
# pIC50: −log10 of the molar value.
# Target: T1, human topoisomerase I (TOP1) (Homo sapiens, UniProt P11387)
# T1 sequence (P11387 2-765): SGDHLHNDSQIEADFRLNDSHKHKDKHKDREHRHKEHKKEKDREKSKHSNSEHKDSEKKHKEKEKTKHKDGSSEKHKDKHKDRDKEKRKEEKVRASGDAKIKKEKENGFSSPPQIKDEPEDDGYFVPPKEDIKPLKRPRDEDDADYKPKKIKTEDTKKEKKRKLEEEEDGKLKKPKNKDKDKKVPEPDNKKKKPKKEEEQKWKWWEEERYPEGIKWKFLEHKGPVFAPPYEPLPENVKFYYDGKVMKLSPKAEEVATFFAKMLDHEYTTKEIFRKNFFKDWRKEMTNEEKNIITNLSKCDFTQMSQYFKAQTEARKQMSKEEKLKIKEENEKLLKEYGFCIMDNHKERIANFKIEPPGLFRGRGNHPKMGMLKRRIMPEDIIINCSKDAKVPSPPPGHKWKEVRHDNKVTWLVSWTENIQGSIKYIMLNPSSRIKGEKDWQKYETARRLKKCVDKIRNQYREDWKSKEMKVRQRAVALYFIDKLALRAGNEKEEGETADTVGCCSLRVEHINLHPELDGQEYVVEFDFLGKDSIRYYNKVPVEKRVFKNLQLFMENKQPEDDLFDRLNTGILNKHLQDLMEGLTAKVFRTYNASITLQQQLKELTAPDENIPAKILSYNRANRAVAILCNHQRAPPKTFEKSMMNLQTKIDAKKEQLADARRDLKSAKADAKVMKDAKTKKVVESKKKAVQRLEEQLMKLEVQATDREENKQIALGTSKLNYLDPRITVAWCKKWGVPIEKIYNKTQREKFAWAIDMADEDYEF
# Test: supercoiled plasmid DNA relaxation, agarose gel
# Type: biochemical
row,pIC50,SMILES
1,~5.00,O=c1c(O)c(-c2cc(O)c(O)c(O)c2)oc2cc(O)cc(O)c12 [myricetin]
2,6.05,O=C(Nc1ccc(Sc2ccc(N=Nc3c(O)c(S(=O)(=O)O)cc4cc(S(=O)(=O)O)ccc34)cc2)cc1)c1ccc(N=Nc2c(O)c(S(=O)(=O)O)cc3cc(S(=O)(=O)O)ccc23)cc1 [NSC65860]
